Source: PubChem BioAssay AID1963981 (Molecular Pharmacology Branch, DTP, NCI, 2024)

Tested on: 354836-022-R-J1-PDC multicell spheroid viability
Assay: Anticancer human tumor 354836-022-R-J1-PDC patient-derived head and neck squamous cell carcinoma cell line growth inhibition [PI3K]
Details: for IC50: curve of first compound; for viability, T/C: stronger effect = lower value
In short: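 Stroma-containing spheroids: tumor line, pooled-donor HUVEC, hMSC. Treatments: targeted agents with PI3K inhibitors. Dosing: clinically relevant, half-log spacing, 10 microM ceiling without known Cmax. Read-out: cell viability.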

[1] = second compound 0.00316 µM, first compound 0.0316 µM
[2] = second compound 0.00316 µM, first compound 0.1 µM
[3] = second compound 0.00316 µM, first compound 0.316 µM
[4] = second compound 0.00316 µM, first compound 1 µM
[5] = second compound 0.00316 µM, first compound 3.16 µM
[6] = second compound 0.00316 µM, first compound 10 µM
[7] = second compound 0.01 µM, first compound 0.0316 µM
[8] = second compound 0.01 µM, first compound 0.1 µM
[9] = second compound 0.01 µM, first compound 0.316 µM
[10] = second compound 0.01 µM, first compound 1 µM
[11] = second compound 0.01 µM, first compound 3.16 µM
[12] = second compound 0.01 µM, first compound 10 µM
[13] = second compound 0.0316 µM, first compound 0.0316 µM
[14] = second compound 0.0316 µM, first compound 0.1 µM
[15] = second compound 0.0316 µM, first compound 0.316 µM
[16] = second compound 0.0316 µM, first compound 1 µM
[17] = second compound 0.0316 µM, first compound 3.16 µM
[18] = second compound 0.0316 µM, first compound 10 µM
[19] = second compound 0.1 µM, first compound 0.0316 µM
[20] = second compound 0.1 µM, first compound 0.1 µM
[21] = second compound 0.1 µM, first compound 0.316 µM
[22] = second compound 0.1 µM, first compound 1 µM
[23] = second compound 0.1 µM, first compound 3.16 µM
[24] = second compound 0.1 µM, first compound 10 µM
[25] = second compound 0.316 µM, first compound 0.0316 µM
[26] = second compound 0.316 µM, first compound 0.1 µM
[27] = second compound 0.316 µM, first compound 0.316 µM
[28] = second compound 0.316 µM, first compound 1 µM
[29] = second compound 0.316 µM, first compound 3.16 µM
[30] = second compound 0.316 µM, first compound 10 µM
[31] = second compound 1 µM, first compound 0.0316 µM
[32] = second compound 1 µM, first compound 0.1 µM
[33] = second compound 1 µM, first compound 0.316 µM
[34] = second compound 1 µM, first compound 1 µM
[35] = second compound 1 µM, first compound 3.16 µM
[36] = second compound 1 µM, first compound 10 µM
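Note: spheroids exposed to agents for seven days before the viability read.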

CC1(C)CCC(CN2CCN(c3ccc(C(=O)NS(=O)(=O)c4ccc(NCC5CCOCC5)c([N+](=O)[O-])c4)c(Oc4cnc5[nH]ccc5c4)c3)CC2)=C(c2ccc(Cl)cc2)C1 + COc1c(OCCCN2CCOCC2)ccc2c3n(c(=NC(=O)c4cnc(N)nc4)nc12)CCN3
IC50 (second compound 0.00316 µM): 4.46 µM
IC50 (second compound 0.01 µM): 3.75 µM
IC50 (second compound 0.0316 µM): 3.73 µM
IC50 (second compound 0.1 µM): 1.75 µM
IC50 (second compound 0.316 µM): < 0.0316 µM
IC50 (second compound 1 µM): < 0.0316 µM
viability, T/C [1]: 85.4%
viability, T/C [2]: 97.5%
viability, T/C [3]: 97%
viability, T/C [4]: 96.5%
viability, T/C [5]: 69.2%
viability, T/C [6]: 5.16%
viability, T/C [7]: 92.6%
viability, T/C [8]: 87.3%
viability, T/C [9]: 95%
viability, T/C [10]: 95.5%
viability, T/C [11]: 58%
viability, T/C [12]: 4.01%
viability, T/C [13]: 69%
viability, T/C [14]: 76.2%
viability, T/C [15]: 78.8%
viability, T/C [16]: 79%
viability, T/C [17]: 58%
viability, T/C [18]: 3.73%
viability, T/C [19]: 58.9%
viability, T/C [20]: 50.6%
viability, T/C [21]: 49%
viability, T/C [22]: 61.7%
viability, T/C [23]: 44.6%
viability, T/C [24]: 2.56%
viability, T/C [25]: 12.8%
viability, T/C [26]: 12.5%
viability, T/C [27]: 13.7%
viability, T/C [28]: 14.3%
viability, T/C [29]: 7.93%
viability, T/C [30]: 1.71%
viability, T/C [31]: 1.99%
viability, T/C [32]: 1.2%
viability, T/C [33]: 1.79%
viability, T/C [34]: 1.5%
viability, T/C [35]: 1.66%
viability, T/C [36]: 0.72%

CCCS(=O)(=O)Nc1ccc(F)c(C(=O)c2c[nH]c3ncc(-c4ccc(Cl)cc4)cc23)c1F + COc1c(OCCCN2CCOCC2)ccc2c3n(c(=NC(=O)c4cnc(N)nc4)nc12)CCN3
IC50 (second compound 0.00316 µM): 5.87 µM
IC50 (second compound 0.01 µM): 5.89 µM
IC50 (second compound 0.0316 µM): 4.28 µM
IC50 (second compound 0.1 µM): < 0.0316 µM
IC50 (second compound 0.316 µM): < 0.0316 µM
IC50 (second compound 1 µM): < 0.0316 µM
viability, T/C [1]: 99.6%
viability, T/C [2]: 96%
viability, T/C [3]: 97.8%
viability, T/C [4]: 108%
viability, T/C [5]: 86.4%
viability, T/C [6]: 18.6%
viability, T/C [7]: 85.1%
viability, T/C [8]: 93.7%
viability, T/C [9]: 93.7%
viability, T/C [10]: 91.4%
viability, T/C [11]: 86.4%
viability, T/C [12]: 19.1%
viability, T/C [13]: 72.8%
viability, T/C [14]: 86.7%
viability, T/C [15]: 86.3%
viability, T/C [16]: 78.6%
viability, T/C [17]: 64%
viability, T/C [18]: 11.1%
viability, T/C [19]: 48.2%
viability, T/C [20]: 43.8%
viability, T/C [21]: 47.1%
viability, T/C [22]: 56.4%
viability, T/C [23]: 40.7%
viability, T/C [24]: 7.62%
viability, T/C [25]: 12.5%
viability, T/C [26]: 13.2%
viability, T/C [27]: 12.3%
viability, T/C [28]: 13.6%
viability, T/C [29]: 12.4%
viability, T/C [30]: 1.45%
viability, T/C [31]: 1.35%
viability, T/C [32]: 1.58%
viability, T/C [33]: 2.26%
viability, T/C [34]: 1.47%
viability, T/C [35]: 1.69%
viability, T/C [36]: 0.99%

CNC(=O)c1ccc(N2C(=S)N(c3ccc(C#N)c(C(F)(F)F)c3)C(=O)C2(C)C)cc1F + COc1c(OCCCN2CCOCC2)ccc2c3n(c(=NC(=O)c4cnc(N)nc4)nc12)CCN3
IC50 (second compound 0.00316 µM): > 10 µM
IC50 (second compound 0.01 µM): > 10 µM
IC50 (second compound 0.0316 µM): > 10 µM
IC50 (second compound 0.1 µM): < 0.0316 µM
IC50 (second compound 0.316 µM): < 0.0316 µM
IC50 (second compound 1 µM): < 0.0316 µM
viability, T/C [1]: 93.6%
viability, T/C [2]: 102%
viability, T/C [3]: 101%
viability, T/C [4]: 107%
viability, T/C [5]: 124%
viability, T/C [6]: 93.2%
viability, T/C [7]: 97.3%
viability, T/C [8]: 92.8%
viability, T/C [9]: 92.7%
viability, T/C [10]: 97.7%
viability, T/C [11]: 102%
viability, T/C [12]: 108%
viability, T/C [13]: 78.1%
viability, T/C [14]: 80%
viability, T/C [15]: 81.8%
viability, T/C [16]: 83.7%
viability, T/C [17]: 80.4%
viability, T/C [18]: 77%
viability, T/C [19]: 47.8%
viability, T/C [20]: 50.8%
viability, T/C [21]: 57.1%
viability, T/C [22]: 49.2%
viability, T/C [23]: 58.4%
viability, T/C [24]: 49.9%
viability, T/C [25]: 16.4%
viability, T/C [26]: 18.1%
viability, T/C [27]: 13.4%
viability, T/C [28]: 10.8%
viability, T/C [29]: 14.5%
viability, T/C [30]: 12.6%
viability, T/C [31]: 1.3%
viability, T/C [32]: 1.27%
viability, T/C [33]: 1.65%
viability, T/C [34]: 1.63%
viability, T/C [35]: 1.96%
viability, T/C [36]: 0.99%
